Source: publication PMC4447972, “Mechanism of the Association between Na^+ Binding and Conformations at the Intracellular Gate in Neurotransmitter:Sodium Symporters” (The Journal of Biological Chemistry, 2015)

Assays:
DAT (hDAT) = biological target: T1, DAT (hDAT) (Homo sapiens, UniProt Q01959); details: read-out: DA Km; 130 mM NaCl, pH 7.4; 6 nM [3H]DA plus unlabelled DA; apparent affinity for uptake
T1 construct: gene SLC6A3

[1] = substrate: NCCc1ccc(O)c(O)c1; test: cells, lysate or membranes; details: 130 mM NaCl, pH 7.4, 6 nM [3H]DA plus unlabelled DA, apparent affinity for uptake

T1 sequence (Q01959 whole entry): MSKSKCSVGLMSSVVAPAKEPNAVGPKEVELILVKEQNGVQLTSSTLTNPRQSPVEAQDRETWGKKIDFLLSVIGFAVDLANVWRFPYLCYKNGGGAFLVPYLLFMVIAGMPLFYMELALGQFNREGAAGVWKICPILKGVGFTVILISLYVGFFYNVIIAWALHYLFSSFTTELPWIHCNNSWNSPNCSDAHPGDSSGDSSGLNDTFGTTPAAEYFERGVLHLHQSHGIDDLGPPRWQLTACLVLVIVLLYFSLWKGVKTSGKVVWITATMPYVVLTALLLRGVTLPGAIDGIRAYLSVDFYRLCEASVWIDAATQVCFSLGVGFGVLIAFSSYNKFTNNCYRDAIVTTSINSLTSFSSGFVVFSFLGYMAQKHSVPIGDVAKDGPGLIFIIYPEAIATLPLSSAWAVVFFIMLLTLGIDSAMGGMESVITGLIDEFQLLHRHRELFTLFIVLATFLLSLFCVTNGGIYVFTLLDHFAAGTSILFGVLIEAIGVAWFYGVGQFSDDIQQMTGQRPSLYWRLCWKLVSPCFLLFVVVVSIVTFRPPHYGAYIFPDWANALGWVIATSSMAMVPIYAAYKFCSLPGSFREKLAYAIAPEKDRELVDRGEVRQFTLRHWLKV

Molecule	Km (DAT (hDAT))	Km [1]
NCCc1ccc(O)c(O)c1 [dopamine]	1.2 µM	–
DAT (hDAT) (Homo sapiens; D436A) (protein) MSKSKCSVGLMSSVVAPAKEPNAVGPKEVELILVKEQNGVQLTSSTLTNPRQSPVEAQDRETWGKKIDFLLSVIGFAVDLANVWRFPYLCYKNGGGAFLVPYLLFMVIAGMPLFYMELALGQFNREGAAGVWKICPILKGVGFTVILISLYVGFFYNVIIAWALHYLFSSFTTELPWIHCNNSWNSPNCSDAHPGDSSGDSSGLNDTFGTTPAAEYFERGVLHLHQSHGIDDLGPPRWQLTACLVLVIVLLYFSLWKGVKTSGKVVWITATMPYVVLTALLLRGVTLPGAIDGIRAYLSVDFYRLCEASVWIDAATQVCFSLGVGFGVLIAFSSYNKFTNNCYRDAIVTTSINSLTSFSSGFVVFSFLGYMAQKHSVPIGDVAKDGPGLIFIIYPEAIATLPLSSAWAVVFFIMLLTLGIDSAMGGMESVITGLIAEFQLLHRHRELFTLFIVLATFLLSLFCVTNGGIYVFTLLDHFAAGTSILFGVLIEAIGVAWFYGVGQFSDDIQQMTGQRPSLYWRLCWKLVSPCFLLFVVVVSIVTFRPPHYGAYIFPDWANALGWVIATSSMAMVPIYAAYKFCSLPGSFREKLAYAIAPEKDRELVDRGEVRQFTLRHWLKV	–	0.15 [0.13;0.18] μM
